Results from patent publication US12527774B2, “Estrogen-related receptor alpha modulators” (LEAD PHARMA HOLDING B.V., priority 2019, dated 2026).

Tests used:
[1] = biological target: ERRα ligand binding domain (ERRα-LBD) (Homo sapiens (Human), UniProt P11474); assay: ERRα AlphaScreen Assay; type: biochemical; conditions: disruption of binding of ERRα-LBD protein to biotin-PGC1α-3 co-activator peptide; for IC50: read-out: mean pIC50 (converted)
Outline: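 His-SUMO-tagged ERRα-LBD from E. coli (0.81 nM) preincubated 1 h at room temperature with compound, streptavidin donor and Ni-chelate acceptor beads (10 μg/mL each), then 2 h with 15 nM biotin-PGC1α-3 peptide (aa 202–220). Buffer: 50 mM Tris-HCl pH 7.5, 100 mM NaCl, 5 mM TCEP, 1% DMSO. Four-parameter IC50; mean pIC50 of replicate values.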

full length ERRα = full length ERRα (Homo sapiens (Human), UniProt P11474); assay: Full Length ERRα Reporter Gene Assay; type: cell-based; conditions: SK-BR-3 cells, ERRα-RE luciferase reporter, overnight incubation; read-out: mean pIC50 (converted)
Sequence of full length ERRα (P11474 whole entry): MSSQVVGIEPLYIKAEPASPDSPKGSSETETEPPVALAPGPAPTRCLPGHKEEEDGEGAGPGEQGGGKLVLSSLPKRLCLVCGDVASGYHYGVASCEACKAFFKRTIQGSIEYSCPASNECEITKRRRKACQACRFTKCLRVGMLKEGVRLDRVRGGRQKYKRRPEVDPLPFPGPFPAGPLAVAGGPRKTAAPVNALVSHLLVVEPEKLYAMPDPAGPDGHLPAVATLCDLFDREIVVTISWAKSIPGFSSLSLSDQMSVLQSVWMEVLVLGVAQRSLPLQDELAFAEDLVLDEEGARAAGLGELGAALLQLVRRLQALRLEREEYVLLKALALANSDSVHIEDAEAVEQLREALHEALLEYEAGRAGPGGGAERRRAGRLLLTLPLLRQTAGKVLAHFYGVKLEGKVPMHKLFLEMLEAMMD
Description: Full Length ERRα Reporter Gene Assay
A method was established to quantitatively screen the potency of compounds with inverse agonistic activity on the nuclear receptor ERRα of the human species. The assay allows intra-cellular screening of ERRα inverse agonists in SK-BR-3 cells using an over-expression construct coding full length ERRα and a reporter construct containing an ERRα Response Element (RE) and a luciferase gene for read out. The activity is expressed in log IC50 values and can be used to determine SAR of compound families or to de-select compounds.
In this assay, reporter cells are obtained by transient co-transfection of two constructs in SK-BR-3 cells using standard transfection techniques. The first construct contains a response element of the nuclear receptor ERRα (Plasmid pLP2175, Reporter construct ERRα-RE/luc2P, cloned variant of ERRα_v2_synthRE, Switchgear Genomics, Catalog Number S900089). This sequence drives the transcription of the luciferase reporter gene in response to binding of an ERRα protein encoded by the second construct (Plasmid pLP2124: full length ERRα expression construct using pcDNA3.1/Hygro(+) as background, Invitrogen Catalog Number V87020).
The day after transfection, cells were plated into 96 well plates, test compound was added and the plates were incubated overnight. Subsequently, the firefly luciferase activity was quantified using luciferase detection reagent and luminescence readout.
Detailed Assay Description
Transfection is performed on pre-seeded SK-BR-3 cells in a T175 flask. One transfected T175 flask is sufficient for seeding 3 to 4 MW96 plates the next day, depending on the confluency of the transfected cells.
Two different media are used in this protocol for cell treatment: 1) Culture medium, i.e. McCoy's 5a with phenol red (BioWhittaker Supplier Number 12-688F), 10% FBS and 1× Penstrep.; and, 2) Assay medium, i.e. McCoy's 5a Medium phenol red free (HyClone Product Code SH30270.01) with 2% Charcoal Stripped FBS and 1× Penstrep. Compound dilutions are prepared in assay medium.
Cells are seeded at least 2 days in advance to allow the cells to adhere well to flask before transfection. Cells should be 50-80% confluent at the day of transfection.
SKBR3 cells were transfected with the transcriptional reporter construct pLP2175 and the ERRα expression construct pLP2124 (as described above).
68 μL of Lipofectamine LTX transfection reagent (Invitrogen Catalog Number 15338-100) was added dropwise to 8.9 ml Opti-MEM I Reduced Serum Medium (Gibco Catalog Number 51985-026) and incubated at room temperature for 5 to 20 minutes. 8.9 ml of this reagent mixture was added to 22 μg pLP2175+22 μg pLP2124 (ratio 1:1 and total volume 10 ml), and incubated at room temperature for 25 minutes.
10 minutes before adding the transfection mix to SKBR3 cells in a T175 flask, the culture medium was refreshed with 20 mL culture medium. Subsequently, the 10 mL DNA-Opti-MEM-Lipofectamine mixture was gently added to the cells, followed by overnight (16-24 hours) incubation at 37° C. and 5% CO2.
To harvest SKBR3 cells from a T175 flask, first the medium was removed. Subsequently, cells were washed with Phosphate Buffered Saline (PBS) (Lonza), after which the PBS was removed. To dissociate the cells, 2 ml of TrypLE Express (Invitrogen) was added to the flask, followed by incubation at 37° C. for 5 minutes. The flask was tapped until cells were detached from the bottom. Cells were collected in 8 mL of culture medium (McCoy's 5α, 10% FBS, penstrep), to achieve a single cell suspension. After cell count, cells were spun down for 5 minutes at 300 g. Next cell pellets were re-suspended to 25000 cells/80 μl assay medium (McCoy's 5a phenol red free, 2% charcoal stripped FBS, penstrep).
For compound screening, the cells were harvested (as described above). 80 μL of cell suspension (25,000 cells) was plated per well into a white, flat bottom, tissue culture treated, 96 well screening plates (Greiner). […]

Sequence of ERRα ligand binding domain (ERRα-LBD) (P11474 193-421): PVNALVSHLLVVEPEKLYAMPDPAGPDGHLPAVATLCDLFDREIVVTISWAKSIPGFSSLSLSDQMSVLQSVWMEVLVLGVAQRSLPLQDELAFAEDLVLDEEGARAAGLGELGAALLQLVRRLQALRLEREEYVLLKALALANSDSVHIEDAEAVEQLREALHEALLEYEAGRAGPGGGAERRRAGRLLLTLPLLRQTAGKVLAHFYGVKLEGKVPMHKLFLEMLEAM

SMILES | mean pIC50 [1] | IC50 (full length ERRα) [nM] | IC50 [1] [nM]
COc1cc(-c2cc(=O)[nH]c3n[nH]cc23)ccc1OCc1ccc(F)cc1C(F)(F)F [Example 179, 4-(4-{[4-fluoro-2-(trifluoromethyl)phenyl]methoxy}-3-methoxyphenyl)-2H,6H, 7H-pyrazolo[3,4-b]pyridin-6-one] | ≥ 8 | ≤ 316 | 
COc1cc(C2CC(=O)Nc3n[nH]cc32)ccc1OCc1ccc(C#CCO)cc1C(F)(F)F (stereo not drawn) [Example 146, 4-(4-{[4-(3-hydroxyprop-1-yn-1-yl)-2-(trifluoromethyl)phenyl]methoxy}-3-methoxyphenyl)-2H,4H,5H,6H, 7H-pyrazolo[3,4-b]pyridin-6-one] | ≥ 8 | ≤ 316 | 
COc1cc(C2CC(=O)Nc3n[nH]cc32)ccc1COc1ccc(C(F)F)cc1C(F)(F)F (stereo not drawn) [Example 115, 4-(4-{[4-(difluoromethyl)-2-(trifluoromethyl)phenoxy]methyl}-3-methoxyphenyl)-2H,4H,5H,6H,7H-pyrazolo[3,4-b]pyridin-6-one] | ≥ 8 | ≤ 316 | 
COc1cc(C2CC(=S)Nc3n[nH]cc32)ccc1OCc1ccccc1C(F)(F)F (stereo not drawn) [Example 166, 4-(3-methoxy-4-{[2-(trifluoromethyl)phenyl]methoxy}phenyl)-2H,4H,5H,6H,7H-pyrazolo[3,4-b]pyridine-6-thione] | ≥ 8 | ≤ 316 | 
O=C1CC(c2ccc(OCc3ccccc3C(F)(F)F)c(OC(F)F)c2)c2c[nH]nc2N1 (stereo not drawn) [Example 68, 4-[3-(difluoromethoxy)-4-{[2-(trifluoromethyl)phenyl]methoxy}phenyl]-2H,4H,5H,6H, 7H-pyrazolo[3,4-b]pyridin-6-one] | ≥ 8 | ≤ 316 | 
COc1ccc(COc2ccc(C3CC(=O)Nc4[nH]nnc43)cc2OC)c(C(F)(F)F)c1 (stereo not drawn) [Example 91, 7-(3-methoxy-4-{[4-methoxy-2-(trifluoromethyl)phenyl]methoxy}phenyl)-3H,4H,5H,6H,7H-[1,2,3]triazolo[4,5-b]pyridin-5-one] | ≥ 8 | ≤ 316 | 
COc1cc(C2CC(=O)Nc3n[nH]cc32)ccc1OCc1ccc(NC(=O)CN)cc1C(F)(F)F (stereo not drawn) [Example 140, 2-amino-N-{4-[(2-methoxy-4-{6-oxo-2H,4H,5H,6H, 7H-pyrazolo[3,4-b]pyridin-4-yl}phenoxy)methyl]-3-(trifluoromethyl)phenyl}acetamide] |  | ≤ 316 | 100 to 1000
COc1cc(-c2cc(=O)[nH]c3n[nH]cc23)ccc1OCc1ccccc1C(F)(F)F [Example 169, 4-(3-methoxy-4-{[2-(trifluoromethyl)phenyl]methoxy}phenyl)-2H,6H,7H-pyrazolo[3,4-b]pyridin-6-one] | ≥ 8 | ≤ 316 | 
COc1cc(C2CC(=O)Nc3n[nH]cc32)ccc1OCc1ccc(CCN)cc1C(F)(F)F (stereo not drawn) [Example 150, 4-(4-{[4-(2-aminoethyl)-2-(trifluoromethyl)phenyl]methoxy}-3-methoxyphenyl)-2H,4H,5H,6H, 7H-pyrazolo[3,4-b]pyridin-6-one] |  | ≤ 316 | 100 to 1000
COc1cc(C2CC(=O)Nc3n[nH]cc32)ccc1OCc1ccc(C(F)(F)F)cc1C(F)(F)F (stereo not drawn) [Example 8, 4-(4-{[2,4-bis(trifluoromethyl)phenyl]methoxy}-3-methoxyphenyl)-2H,4H,5H,6H, 7H-pyrazolo[3,4-b]pyridin-6-one] | ≥ 8 | ≤ 316 | 
COc1cc(C2CC(=O)Nc3n[nH]cc32)ccc1OCc1ccc(Cl)cc1C(F)(F)F (stereo not drawn) [Example 15, 4-(4-{[4-chloro-2-(trifluoromethyl)phenyl]methoxy}-3-methoxyphenyl)-2H,4H,5H,6H, 7H-pyrazolo[3,4-b]pyridin-6-one] | ≥ 8 | ≤ 316 | 
COc1cc(C2CC(=O)Nc3n[nH]cc32)ccc1OCc1ccc(C=O)cc1C(F)(F)F (stereo not drawn) [Example 159, 4-[(2-methoxy-4-{6-oxo-2H,4H,5H,6H,7H-pyrazolo[3,4-b]pyridin-4-yl}phenoxy)methyl]-3-(trifluoromethyl)benzaldehyde] |  | ≤ 316 | 10 to 100
COc1cc(C2CC(=O)Nc3n[nH]cc32)ccc1OCc1ccc(F)cc1C(F)(F)F (stereo not drawn) [Example 9, 4-(4-{[4-fluoro-2-(trifluoromethyl)phenyl]methoxy}-3-methoxyphenyl)-2H,4H,5H,6H, 7H-pyrazolo[3,4-b]pyridin-6-one] |  | ≤ 316 | 10 to 100
COc1cc(C2CC(=O)Nc3n[nH]cc32)ccc1OCc1ccc(CC(O)CO)cc1C(F)(F)F (stereo not drawn) [Example 143, 4-(4-{[4-(2,3-dihydroxypropyl)-2-(trifluoromethyl)phenyl]methoxy}-3-methoxyphenyl)-2H,4H,5H,6H, 7H-pyrazolo[3,4-b]pyridin-6-one] | ≥ 8 | ≤ 316 | 
CCOc1cc(C2CC(=O)Nc3n[nH]cc32)ccc1OCc1ccccc1C(F)(F)F (stereo not drawn) [Example 62, 4-(3-ethoxy-4-{[2-(trifluoromethyl)phenyl]methoxy}phenyl)-2H,4H,5H,6H, 7H-pyrazolo[3,4-b]pyridin-6-one] | ≥ 8 | ≤ 316 | 
COc1cc(C2CC(=O)Nc3n[nH]cc32)ccc1COc1ccc(Br)cc1C(F)(F)F (stereo not drawn) [Example 96, 4-(4-{[4-bromo-2-(trifluoromethyl)phenoxy]methyl}-3-methoxyphenyl)-2H,4H,5H,6H, 7H-pyrazolo[3,4-b]pyridin-6-one] |  | ≤ 316 | ≤ 10
COc1cc(C2CC(=O)Nc3n[nH]nc32)ccc1OCc1ccc(CCO)cc1C(F)(F)F (stereo not drawn) [Example 157, 7-(4-{[4-(2-hydroxyethyl)-2-(trifluoromethyl)phenyl]methoxy}-3-methoxyphenyl)-2H,4H,5H,6H, 7H-[1,2,3]triazolo[4,5-b]pyridin-5-one] | ≥ 8 | ≤ 316 | 
CCc1ccc(COc2ccc(C3CC(=O)Nc4n[nH]cc43)cc2OC)c(C(F)(F)F)c1 (stereo not drawn) [Example 144, 4-(4-{[4-ethyl-2-(trifluoromethyl)phenyl]methoxy}-3-methoxyphenyl)-2H,4H,5H,6H, 7H-pyrazolo[3,4-b]pyridin-6-one] | ≥ 8 | ≤ 316 | 
C=CCc1ccc(COc2ccc(C3CC(=O)Nc4n[nH]cc43)cc2OC)c(C(F)(F)F)c1 (stereo not drawn) [Example 142, 4-(3-methoxy-4-{[4-(prop-2-en-1-yl)-2-(trifluoromethyl)phenyl]methoxy}phenyl)-2H,4H,5H,6H,7H-pyrazolo[3,4-b]pyridin-6-one] | ≥ 8 | ≤ 316 | 
COc1cc(C2CC(=O)Nc3n[nH]cc32)ccc1OCc1ccc(CCO)cc1C(F)(F)F (single isomer, unassigned; (+)) [Example 211, (+)-4-(4-{[4-(2-hydroxyethyl)-2-(trifluoromethyl)phenyl]methoxy}-3-methoxyphenyl)-2H,4H,5H,6H,7H-pyrazolo[3,4-b]pyridin-6-one] |  | ≤ 316 | 10 to 100
COc1cc(C2CC(=O)Nc3n[nH]cc32)ccc1OCc1cccc(OC)c1C(F)(F)F (stereo not drawn) [Example 36, 4-(3-methoxy-4-{[3-methoxy-2-(trifluoromethyl)phenyl]methoxy}phenyl)-2H,4H,5H,6H,7H-pyrazolo[3,4-b]pyridin-6-one] | ≥ 8 | ≤ 316 | 
